Experimental data: patent publication US20230348583A1, “TGFbeta1-BINDING IMMUNOGLOBULINS AND USE THEREOF” (SCHOLAR ROCK, INC., priority 2016, published 2023)

Key:
rats = conditions: Frazier et al. 2007; cited from earlier work
female F344/NHsd rats = experiment: Rat toxicity study; conditions: for Aortic root: Hemorrhage, Minimal / Aortic root: Infiltrate, mixed cell, Minimal / Atrium: Hemorrhage, Minimal / Atrium: Hyperplasia, endothelium, Minimal / Atrium: Infiltrate, mixed cell, Minimal / Atrium: Infiltrate, mixed cell, Slight / Coronary artery: Necrosis with inflammation, Slight / Heart valves: Valvulopathy, Minimal / Heart valves: Valvulopathy, Moderate / Heart valves: Valvulopathy, Slight / Myocardium: Degeneration/necrosis, Minimal / Myocardium: Degeneration/necrosis, Slight / Myocardium: Hemorrhage, Slight / Myocardium: Infiltrate, mixed cell, Slight: animals affected (n=5)
Description: Animal body weight was determined at days 1, 3, and 7 of the dosing phase. Animals were sacrificed at day 8 and necropsies performed.

rats and dogs = conditions: Stauber et al. 2014; cited from earlier work
cynomolgus macaques = conditions: cynomolgus monkey, in vivo; cited from earlier work
human cancer patients = conditions: in vivo; cited from earlier work

In the case of `O=C(NC1CCOCC1)c1ccc(-c2cc(-c3c[nH]nc3-c3ccccn3)ccn2)cc1` [GW788388], the “Bone toxicity in rats” value (rats) is given as “induced physeal dysplasia”.

For `c1ccc(-c2nn3c(c2-c2ccnc4cc(OCCN5CCOCC5)ccc24)CCC3)nc1` [LY2109761], the “Body weight during the dosing phase” value (female F344/NHsd rats; 200 mg/kg or 300 mg/kg) was “decreased body weight”, the Animals found dead (female F344/NHsd rats; 200 mg/kg oral gavage once daily, n=5, day 7) was “Two” and the Mortality (female F344/NHsd rats; 300 mg/kg oral gavage once daily, all animals (n=5), days 3, 6, or 7) was “sacrificed in a moribund condition or found dead”. For the same compound, the “Heart, Absolute Weight” value (female F344/NHsd rats; LY2109761 200 mg/kg/day) was 112 percentage control mean value, the “Heart, Body Weight Ratio” value (female F344/NHsd rats; LY2109761 200 mg/kg/day) was 132 percentage control mean value and the “Heart, Brain Weight Ratio” value (female F344/NHsd rats; LY2109761 200 mg/kg/day) was 113 percentage control mean value. For the same compound, the “Aortic root: Hemorrhage, Minimal” value (female F344/NHsd rats; LY2109761 200 mg/kg/day) was 1, the “Aortic root: Infiltrate, mixed cell, Minimal” value (female F344/NHsd rats; LY2109761 200 mg/kg/day) was 1 and the “Atrium: Hemorrhage, Minimal” value (female F344/NHsd rats; LY2109761 200 mg/kg/day) was 1. The “Atrium: Hyperplasia, endothelium, Minimal” value (female F344/NHsd rats; LY2109761 200 mg/kg/day) was 1, the “Atrium: Infiltrate, mixed cell, Minimal” value (female F344/NHsd rats; LY2109761 200 mg/kg/day) was 2 and the “Atrium: Infiltrate, mixed cell, Slight” value (female F344/NHsd rats; LY2109761 200 mg/kg/day) was 0. For the same compound, the “Coronary artery: Necrosis with inflammation, Slight” value (female F344/NHsd rats; LY2109761 200 mg/kg/day) was 0, the “Heart valves: Valvulopathy, Minimal” value (female F344/NHsd rats; LY2109761 200 mg/kg/day) was 1 and the “Heart valves: Valvulopathy, Moderate” value (female F344/NHsd rats; LY2109761 200 mg/kg/day) was 1. The “Heart valves: Valvulopathy, Slight” value (female F344/NHsd rats; LY2109761 200 mg/kg/day) was 3, the “Myocardium: Degeneration/necrosis, Minimal” value (female F344/NHsd rats; LY2109761 200 mg/kg/day) was 0 and the “Myocardium: Degeneration/necrosis, Slight” value (female F344/NHsd rats; LY2109761 200 mg/kg/day) was 1. For the same compound, the “Myocardium: Hemorrhage, Slight” value (female F344/NHsd rats; LY2109761 200 mg/kg/day) was 1, the “Myocardium: Infiltrate, mixed cell, Slight” value (female F344/NHsd rats; LY2109761 200 mg/kg/day) was 0 and the “Aortic root: Hemorrhage, Minimal” value (female F344/NHsd rats; LY2109761 300 mg/kg/day) was 0. The “Aortic root: Infiltrate, mixed cell, Minimal” value (female F344/NHsd rats; LY2109761 300 mg/kg/day) was 0, the “Atrium: Hemorrhage, Minimal” value (female F344/NHsd rats; LY2109761 300 mg/kg/day) was 2 and the “Atrium: Hyperplasia, endothelium, Minimal” value (female F344/NHsd rats; LY2109761 300 mg/kg/day) was 3. The “Atrium: Infiltrate, mixed cell, Minimal” value (female F344/NHsd rats; LY2109761 300 mg/kg/day) was 3, the “Atrium: Infiltrate, mixed cell, Slight” value (female F344/NHsd rats; LY2109761 300 mg/kg/day) was 1 and the “Coronary artery: Necrosis with inflammation, Slight” value (female F344/NHsd rats; LY2109761 300 mg/kg/day) was 1. For the same compound, the “Heart valves: Valvulopathy, Minimal” value (female F344/NHsd rats; LY2109761 300 mg/kg/day) was 2, the “Heart valves: Valvulopathy, Moderate” value (female F344/NHsd rats; LY2109761 300 mg/kg/day) was 0 and the “Heart valves: Valvulopathy, Slight” value (female F344/NHsd rats; LY2109761 300 mg/kg/day) was 3. The “Myocardium: Degeneration/necrosis, Minimal” value (female F344/NHsd rats; LY2109761 300 mg/kg/day) was 1, the “Myocardium: Degeneration/necrosis, Slight” value (female F344/NHsd rats; LY2109761 300 mg/kg/day) was 1 and the “Myocardium: Hemorrhage, Slight” value (female F344/NHsd rats; LY2109761 300 mg/kg/day) was 0. The “Myocardium: Infiltrate, mixed cell, Slight” value (female F344/NHsd rats; LY2109761 300 mg/kg/day) was 1, the “Animals with abnormally-shaped sternum” value (female F344/NHsd rats; each of 200 mg/kg and 300 mg/kg groups, n=5) was “four” and the “Clear fluid in the thoracic cavity” value (female F344/NHsd rats; one animal at 300 mg/kg found dead on Day 3, with enlarged thymus (edema)) was 2.5 mL. For the same compound, the Heart weight (female F344/NHsd rats; ≥200 mg/kg) was “Increased heart weights” and the “Microscopic heart valve findings” value (female F344/NHsd rats; ≥200 mg/kg) was “exhibited heart valve findings (i.e., valvulopathy)”.

For `Cc1cccc(-c2nn3c(c2-c2ccnc4ccc(C(N)=O)cc24)CCC3)n1` [LY2157299], the “Organ toxicities on chronic (≥3 months) administration” value (rats and dogs) is listed as “caused multiple organ toxicities”.

For “Fresolimumab: a pan TGFβ antibody capable of neutralizing all human isoforms of TGFβ”, the “Toxicity after multiple administrations” value (cynomolgus macaques) is given as “induce an epithelial hyperplasia of the gingiva, bladder, and of the nasal turbinate epithelium” and the “Most notable adverse reaction in clinical trials” value (human cancer patients) is given as “induction of cutaneous keratoacanthomas and/or squamous cell carcinomas”.
